Reference: US20120124703A1, “NOVEL COPRINUS COMATUS AND TREMELLA MESENTERICA MUSHROOM STRAINS, PRODUCTS AND EXTRACTS THEREOF AND COMPOSITIONS COMPRISING THEM” (PALMED TEVA LTD, priority 2009, published 2012)
Where two headings read alike, the source gives them in different places. Marks after values point to notes of the source that are not given here. *1 amine or outer side, *2 acyl side, *3 side chain or, on linkers, in order; H or OH if unused. Where a SMILES comes first, the peptide text is derived from it. Bridges are numbered along the chain shown (N, C = ends). Roman numbers before positions name the chains, in order. [ ]: non-standard residue; d: D form. Actinocin(9to1) = Cc1c2oc3c(C)ccc(C(=O)[*:1])c3nc-2c(C(=O)[*:2])c(N)c1=O; NMeV = CN[C@H](C(=O)O)C(C)C; Sar = CNCC(=O)O

How the values were obtained:
[1] = tested on: Tobacco mosaic virus (TMV), strain U1; test: Influence of actinomycin D on GXM-induced resistance to TMV; assay type: in vivo, Nicotiana tabacum, variety Immune 580; details: FIG. 14
Method: Abscissa: variants of the experiment: 1—GXM; 2—mixture of GXM and AMD (10 μg/mL); 3—AMD (10 μg/mL) introduced 2 days after GXM; 4—AMD (20 μg/mL) introduced 2 days after GXM; 5—AMD (10 μg/mL). Ordinate: the ratio (%) of the quantity of local lesions in the experiment (dark solid bars) and in control (textured light bars).
When studying the GXM-induced mechanism of plant resistance, we used actinomycin D (AMD) inhibiting the DNA-dependent synthesis of mRNA by blocking RNA-polymerases. Solutions of AMD at the concentrations of 10 and 20 μg/mL and rhamnolipide (RL)−1 mg/mL, which were subepidermally introduced simultaneously or via definite periods of time after the GXM.

[2] = tested on: Coprinus comatus lectin; test: Sugar-binding specificity: inhibition of lectin-induced hemagglutination by carbohydrates; assay type: biochemical; details: for Inhibition of lectin hemagglutinating activity by sugar: Coprinus comatus biomass lectin
Method: Sugar-binding specificity of lectins. The investigation of inhibition of lectin-induced hemagglutination by various carbohydrates was performed in a manner analogous to the hemagglutination test. Sugar samples (0.3 M) were prepared in phosphate buffered saline. All of the dilutions were mixed with an equal volume (25 μL) of a solution of the lectin. The mixture was allowed to stand for 30 min at room temperature and then mixed with 50 μL of 2% rabbit erythrocyte suspension. Sugar-binding specificity was expressed as the minimum concentration of each sugar required for inhibition of hemagglutination of titer 4 of the lectin. N-Acetyl-D-galactosamine (GalNAc); N-Acetyl-D-glucosamine (GlcNAc), D(+)Galactose (Gal); D(+)Glucose, D(+)Lactose (Lac); D(+)Mannose, xylose, cellobiose, and dulcitol were tested for detection of sugar-binding specificity of lectins.

[3] = tested on: IκBα phosphorylation; test: pIκBα level in H2O2-stimulated MCF7 cells, Western immunoblot; assay type: cell-based
Method: Cell Lysis, Preparation of Total Cell Lysates. In order to measure the intracellular levels of certain proteins as a response to the crude fungal extracttreatments, each time after cells were collected, a total cell lysis was performed. The exact procedure of the total cell lysis is described below.
Cells were collected and washed 3 times with cold phosphate buffered saline (PBS) through centrifugation for 5 min, at 3,000 rpm, and 4° C. The final cell amounts were collected in Eppendorf tubes and the left over PBS from the last washing was discarded so that only the cell pellet was left in each tube. For cell lysis, each time a freshly prepared lysis buffer was used with the following content: 500-1000 μL, depending on the number of samples, of cell lysis reagent, protease inhibitor cocktail, and both phosphatase inhibitor cocktails 1 and 2 at the final concentration of 1%, and 0.3 M of phenylmethylsulfonyl fluoride (PMSF). […]
As a control, no H2O2 treatment was used, according to which the kinetics of pIκBα were determined. […]
Densitometric Analysis. Densitometric quantitative analyses of the protein bands, detected by Western blot, have been carried out using the TotalLab software and are presented as folds of the volumes of protein bands. […]

[4] = tested on: interferon (IFN); test: IFN level in blood plasma of mice after per os biomass; assay type: in vivo; details: dose 50 mg/animal
[5] = tested on: Tobacco mosaic virus (TMV), strain U1; assay type: in vivo; details: Datura stramonium
From the text: (§1) Virus: Tobacco mosaic virus (TMV), strain U1;
(§2) Plants: Tobacco (Nicotiana tabacum L.) variety Immune 580 and Datura stramonium L., cultivated in a hothouse under conditions of natural lighting, humidity, and temperature. Plants at a stage of 4-6 leaves were used in the experiment.
Polysaccharides, extracted from culture liquid of Tremella mesenterica were employed in this study using the method of Kovalenko with some modifications. To isolate acid glucuronoxylomannan (GXM) from neutral polysaccharides, we applied its sedimentation from a water solution with acetone (1:1) in the presence of 0.05 M CaCl2. Gas chromatography was carried out on Sephadex G-50 (2.5×80 cm) in pyridinium-acetate buffer, pH 4.5 (4 mL pyridine and 10 mL AcOH in 1 L water) and the eluate was monitored by refractive index detector.
In in vitro experiments the water solutions of the total preparation, neutral polysaccharide preparations, and pure GXM at concentrations of 10, 100, 500, and 1000 μg/mL were added to a suspension of TMV (10 μg/mL). After incubation over the 30 min the left halves of datura's leaves were inoculated with this mixture. The right halves of leaves were inoculated with TMV at the same concentration without polysaccharides. The degree of inhibition of viral infection, or VIR, was counted (in percentage) according to the number of local lesions on the experimental and control halves of the leaves by the following formula: I=((K−D)/K) 100%, where I—is a degree of virus inhibition or level of AVR, %; K—is the number (size) of local lesions in the control; D—is the number (size) of local lesions in the experiment.

[6] = tested on: Tobacco mosaic virus (TMV), strain U1; test: Induction of resistance against TMV infection in Datura; assay type: in vivo; details: Datura stramonium
Method: as §1, §2
(§3) Investigations of induced properties of GXM were carried out on the tobacco and datura plants. […] The two halves of leaves were inoculated by TMV (1-5 μg/mL). The degree of AVR was taken into account by the formula mentioned above.

[7] = tested on: Tobacco mosaic virus (TMV), strain U1; test: Induction of resistance against TMV infection in tobacco; assay type: in vivo, Nicotiana tabacum, variety Immune 580; details: for Level of induced resistance, % / Number of local lesions per leaf, Experiment: Nicotiana tabacum Immune 580; for Level of resistance: GXM 1000 μg/mL, FIG. 11
From the text: Abscissa: interval between introduction of GXM and inoculation of TMV (days). Ordinate: the ratio (%) of the number of local lesions in the experiment (dark solid bars) and in control (textured light bars).
Abscissa: interval between introduction of GXM and inoculation of TMV (days). Ordinate: size of local lesions (mm) in the experiment (dark solid bars) and in control (textured light bars).
as §1, §2, §3

## Cc1c2oc3c(C)ccc(C(=O)N[C@@H]4C(=O)N[C@H](C(C)C)C(=O)N5CCC[C@H]5C(=O)N(C)CC(=O)N(C)[C@@H](C(C)C)C(=O)O[C@@H]4C)c3nc-2c(C(=O)N[C@@H]2C(=O)N[C@H](C(C)C)C(=O)N3CCC[C@H]3C(=O)N(C)CC(=O)N(C)[C@@H](C(C)C)C(=O)O[C@@H]2C)c(N)c1=O [AMD, actinomycin D] (I: T[dV]P[Sar][NMeV] / II: T[dV]P[Sar][NMeV]; ester I:1-I:C, II:1-II:C; linker I:N-II:N via Actinocin(9to1))
[1]; AMD 10 μg/mL
  Inhibition of development of GXM-induced AVR: completely
[1]; AMD 20 μg/mL
  Inhibition of development of GXM-induced AVR: partly

## OC[C@H]1O[C@@H](O[C@H]2[C@H](O)[C@@H](O)C(O)O[C@@H]2CO)[C@H](O)[C@@H](O)[C@H]1O (stereo partly drawn) [Lactose, D(+)Lactose]
[2]; lactose, minimal concentration inhibiting hemagglutination
  MIC of saccharides: 0.78 mM

## O=C[C@H](O)[C@@H](O)[C@H](O[C@@H]1O[C@H](CO)[C@@H](O)[C@H](O)[C@H]1O)[C@H](O)CO [cellobiose]
[2]
  Inhibition of lectin hemagglutinating activity by sugar: did not inhibit

## COc1cc(/C=C/C(=O)CC(=O)/C=C/c2ccc(O)c(OC)c2)ccc1O [curcumin]
[3]; 10 μM, 100 μM H2O2, preliminary data
  pIκBα level: significantly inhibited
[3]; MCF7, 10 min 100 μM H2O2, FIG. 2
  Effect on IκBα phosphorylation: high phospho-IkBα inhibitory effect

## OC[C@@H](O)[C@H](O)[C@H](O)[C@@H](O)CO [dulcitol]
[2]
  Inhibition of lectin hemagglutinating activity by sugar: did not inhibit

## O=C[C@H](O)[C@@H](O)[C@H](O)CO [xylose]
[2]
  Inhibition of lectin hemagglutinating activity by sugar: did not inhibit

## Poly I:C
[4]; 6 hours
  IFN titre: 320 units/ml
[4]; 24 hours
  IFN titre: 40 units/ml
[4]; 48 hours
  IFN titre: <20 units/ml

## glucuronoxylomannan [GXM]
[5]; 10 μg/mL
  Number of local lesions per leaf, Experiment: 26.5
[5]; 100 μg/mL
  Inhibition, %: 16* %
  Number of local lesions per leaf, Experiment: 4.5
[5]; 1000 μg/mL
  Number of local lesions per leaf, Experiment: 1.3
[6]; 100 μg/mL
  Level of induced resistance, %: 110%
  Number of local lesions per leaf, Experiment: 71.2
[6]; 500 μg/mL
  Level of induced resistance, %: 90%
  Number of local lesions per leaf, Experiment: 90.0
[6]; 1000 μg/mL
  Level of induced resistance, %: 14* %
  Number of local lesions per leaf, Experiment: 119.9
[6]; 2000 μg/mL
  Level of induced resistance, %: 33** %
  Number of local lesions per leaf, Experiment: 119.6
[7]; 100 μg/mL
  Level of induced resistance, %: 20%
  Number of local lesions per leaf, Experiment: 98.1
[7]; 500 μg/mL
  Level of induced resistance, %: 20%
  Number of local lesions per leaf, Experiment: 102.7
[7]; 1000 μg/mL
  Level of induced resistance, %: 17* %
  Number of local lesions per leaf, Experiment: 128.5
[7]; 1000 μg/mL, tobacco
  Size of local lesions, experiment vs control: reliable differences were not observed
[7]; 2000 μg/mL
  Level of induced resistance, %: 52** %
  Number of local lesions per leaf, Experiment: 63.4
[7]; 2500 μg/mL, tobacco, FIG. 13
  Growth (size) of TMV local lesions: intensifies the growth of viral lesions
[7]; 1000 and 2500 μg/mL, first day after the inducer, tobacco
  Development of AVR relative to TMV: induces the development of AVR
[7]; 5th day after the inducer, tobacco
  Level of resistance: 30%
[7]; 7th day after the inducer, tobacco
  Level of resistance: 20%
